# Earlier results as cited in patent US8575311B2, “Collagen peptide conjugates and uses therefor” (Purdue Research Foundation, priority 2008, dated 2013).
# Conditions: comparison value, conditions not given
substance,measurement,value
(Pro-Hyp-Gly)9,Tm of comparison peptide,67 °C
